Values of other authors in patent US11179330B2, “Doxepin oral transmucosal film” (Xiamen LP Pharmaceutical Co., Ltd., priority 2019, dated 2021).
Structures can show the parent of a compound that is named as a salt.

Tests used:
[1] = patients

Row | mean oral bioavailability | SMILES | sleep maintained [1] [h]
1 |  | CN(C)CCC=C1c2ccccc2COc2ccccc21 [Doxepin hydrochloride] | 7 to 8
2 | 13-45% | CN(C)CCC=C1c2ccccc2COc2ccccc21 [Doxepin] | 
